Data reported in ChEMBL document CHEMBL4043136, “Chiral-pool synthesis of 1,2,4-trisubstituted 1,4-diazepanes as novel σ1 receptor ligands” (Bioorg Med Chem, 2017).
pIC50, pKi: −log10 of the molar value. Active and inactive are the calls of the source. No cut-off for these calls is given here.

Assays:
[1] = target: T1, Sigma intracellular receptor 2 (Rattus norvegicus, UniProt Q5U3Y7); test: Displacement of [3H]-DTG from sigma2 receptor in rat liver membranes after 120 mins by liquid scintillation counting; type: cell membranes, Membrane
T1 sequence (Q5U3Y7 whole entry): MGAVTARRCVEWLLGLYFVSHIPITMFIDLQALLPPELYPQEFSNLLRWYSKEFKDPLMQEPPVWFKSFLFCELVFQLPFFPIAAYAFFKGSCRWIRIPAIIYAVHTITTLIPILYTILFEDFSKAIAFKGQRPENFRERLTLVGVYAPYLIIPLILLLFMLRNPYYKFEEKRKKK

[2] = target: Sigma non-opioid intracellular receptor 1 (Cavia porcellus, UniProt Q60492); test: Displacement of [3H]-pentazocine from sigma1 receptor in guinea pig brain membranes after 120 mins by liquid scintillation counting; type: cell membranes, Membrane
[3] = Displacement of [3H]-(+)-MK 801 from PCP binding site of NMDA receptor in pig brain cortex membranes after 120 mins by liquid scintillation spectrometry; type: cell membranes, Sus scrofa
[4] = target: C-8 sterol isomerase ERG2 (Saccharomyces cerevisiae S288c) (UniProt P32352); test: Inhibition of yeast sterol-delta8/7-isomerase assessed as accumulation of cholesta-5,7-dien-3beta-ol at 1 uM
[5] = target: C-8 sterol isomerase ERG2 (Saccharomyces cerevisiae S288c) (UniProt P32352); test: Inhibition of yeast sterol-delta8/7-isomerase assessed as accumulation of cholesta-8-en-3beta-ol at 50 uM
[6] = target: C-8 sterol isomerase ERG2 (Saccharomyces cerevisiae S288c) (UniProt P32352); test: Inhibition of yeast sterol-delta8/7-isomerase assessed as accumulation of cholesta-8,14-dien-3beta-ol at 50 uM
[7] = target: C-8 sterol isomerase ERG2 (Saccharomyces cerevisiae S288c) (UniProt P32352); test: Inhibition of yeast sterol-delta8/7-isomerase assessed as accumulation of cholesta-7-en-3beta-ol at 1 uM
[8] = target: C-8 sterol isomerase ERG2 (Saccharomyces cerevisiae S288c) (UniProt P32352); test: Inhibition of yeast sterol-delta8/7-isomerase assessed as accumulation of cholesta-8,14-dien-3beta-ol at 1 uM
[9] = target: C-8 sterol isomerase ERG2 (Saccharomyces cerevisiae S288c) (UniProt P32352); test: Inhibition of yeast sterol-delta8/7-isomerase assessed as accumulation of cholesta-8-en-3beta-ol at 1 uM
[10] = target: C-8 sterol isomerase ERG2 (Saccharomyces cerevisiae S288c) (UniProt P32352); test: Inhibition of yeast sterol-delta8/7-isomerase assessed as accumulation of cholesta-7-en-3beta-ol at 50 uM
[11] = target: C-8 sterol isomerase ERG2 (Saccharomyces cerevisiae S288c) (UniProt P32352); test: Inhibition of yeast sterol-delta8/7-isomerase assessed as accumulation of cholesta-5,7-dien-3beta-ol at 50 uM

Sigma non-opioid intracellular receptor 1, sequence (Q60492 whole entry): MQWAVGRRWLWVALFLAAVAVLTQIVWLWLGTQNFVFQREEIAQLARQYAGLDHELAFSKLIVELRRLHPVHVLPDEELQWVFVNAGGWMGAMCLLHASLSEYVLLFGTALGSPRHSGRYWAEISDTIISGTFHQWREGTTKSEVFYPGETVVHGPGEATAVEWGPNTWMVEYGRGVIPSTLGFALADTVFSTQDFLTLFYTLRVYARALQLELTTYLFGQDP
C-8 sterol isomerase ERG2 (Saccharomyces cerevisiae S288c), sequence (P32352 whole entry, looked up): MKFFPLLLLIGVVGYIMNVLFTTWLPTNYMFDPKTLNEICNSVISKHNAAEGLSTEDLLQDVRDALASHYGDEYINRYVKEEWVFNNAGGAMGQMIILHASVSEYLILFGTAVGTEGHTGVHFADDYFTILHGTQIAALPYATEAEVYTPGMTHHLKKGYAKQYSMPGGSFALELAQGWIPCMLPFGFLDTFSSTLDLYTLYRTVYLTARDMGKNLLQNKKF

Compound	pKi [1]	pKi [2]	pIC50 [3]	inhibition [4]	inhibition [5]	inhibition [6]	inhibition [7]	inhibition [8]	inhibition [9]	inhibition [10]	inhibition [11]
COc1ccc(CN2CCCN(CC3CCCCC3)C[C@@H]2C)cc1	7.72	8.96	< 6.00	–	–	–	–	–	–	–	–
CCCCN1CCN(CCc2ccc(Cl)c(Cl)c2)CC1	–	9.26	–	–	–	–	–	–	–	–	–
CCCCN1CCCN(Cc2ccccc2)[C@@H](C)C1	6.56	9.21	< 6.00	Active	inactive	inactive	Active	Active	Active	Active	Active
CC(C)=CCN1CCCN(Cc2ccccc2)[C@H](Cc2ccccc2)C1	6.49	8.30	< 6.00	Active	inactive	Active	Active	inactive	inactive	Active	Active
CCCCN1CCCN(CCCCc2ccccc2)[C@H](Cc2ccccc2)C1	6.03	7.89	< 6.00	–	–	–	–	–	–	–	–
OCC(c1ccccc1)N1CCCN(Cc2ccccc2)[C@@H](Cc2ccccc2)C1 (stereo not given in full)	< 6.00	6.64	< 6.00	–	–	–	–	–	–	–	–
C[C@H]1CN(CC2CCCCC2)CCCN1Cc1ccc(Cl)cc1	7.29	8.31	< 6.00	–	–	–	–	–	–	–	–
c1ccc(CCCN2CCCN(Cc3ccccc3)[C@H](Cc3ccccc3)C2)cc1	6.52	7.60	< 6.00	inactive	Active	Active	Active	Active	Active	Active	Active
CCCCN1CCCN(CCCCc2ccccc2)[C@@H](Cc2ccccc2)C1	< 6.00	8.21	< 6.00	–	–	–	–	–	–	–	–
C[C@H]1CN(CCCCc2ccccc2)CCCN1Cc1ccccc1	8.07	9.11	< 6.00	Active	–	–	Active	inactive	Active	–	–
OC(CN1CCCN(Cc2ccccc2)[C@@H](Cc2ccccc2)C1)c1ccccc1 (stereo not given in full)	6.04	6.63	< 6.00	–	–	–	–	–	–	–	–
CCCCN1CCCN(CCCC)[C@@H](Cc2ccccc2)C1	6.56	7.74	< 6.00	–	–	–	–	–	–	–	–
c1ccc(CCN2CCCN(Cc3ccccc3)[C@H](Cc3ccccc3)C2)cc1	< 6.00	7.28	< 6.00	Active	–	–	Active	Active	Active	–	–
CCCCN1CCCN(C)[C@H](Cc2ccccc2)C1	6.00	6.95	< 6.00	–	–	–	–	–	–	–	–
CCCCN1CCCN(C)[C@@H](Cc2ccccc2)C1	< 6.00	6.92	< 6.00	–	–	–	–	–	–	–	–
COc1ccc(CN2CCCN(Cc3ccccc3)[C@H](C)C2)cc1	6.37	9.29	< 6.00	–	–	–	–	–	–	–	–
c1ccc(CCCCN2CCCN(Cc3ccccc3)[C@@H](Cc3ccccc3)C2)cc1	6.43	7.42	< 6.00	Active	–	–	Active	Active	inactive	–	–
CCCCN1CCCN(CCCC)[C@H](Cc2ccccc2)C1	< 6.00	7.68	< 6.00	–	–	–	–	–	–	–	–
c1ccc(CCCN2CCCN(Cc3ccccc3)[C@@H](Cc3ccccc3)C2)cc1	6.71	7.14	< 6.00	Active	–	–	Active	Active	Active	–	–
